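Briefly, cells in 96-well plates were exposed to five compound concentrations for 48 h, and endpoints were estimated by linear interpolation. GI50 = concentration required for 50% inhibition of growth. The concentration for full growth arrest is given as TGI.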 Where a SMILES comes first, the peptide text is derived from it. [ ]: non-standard residue; d: D form. The star is where a group is joined. Cbz = O=C(OCc1ccccc1)*; Aib = CC(C)(N)C(=O)O
What was measured:
Test in all cases: NCI anticancer screen, dose series, 48 h
[1] = tested on: SK-MEL-2 melanoma
[2] = tested on: K-562 leukemia
[3] = tested on: SF-268 CNS
[4] = tested on: SK-MEL-5 melanoma
[5] = tested on: HT29 colon
[6] = tested on: MOLT-4 leukemia
[7] = tested on: ACHN renal
[8] = tested on: A498 renal
[9] = tested on: SF-295 CNS
[10] = tested on: U251 CNS

COC(=O)C(CNC(=O)/C=C/c1ccc(OC(C)=O)c(OC(C)=O)c1)NC(=O)/C=C/c1ccc(OC(C)=O)c(OC(C)=O)c1 (stereo not given)
TGI [1]: > 100 µM | TGI [2]: > 100 µM | TGI [3]: > 100 µM | TGI [4]: > 100 µM | TGI [5]: > 100 µM | TGI [6]: 81.5 µM | TGI [7]: > 100 µM | TGI [8]: > 100 µM | TGI [9]: > 100 µM | TGI [10]: > 100 µM

c1ccc(OCc2nnc(CCCCCCCCc3nnc(COc4ccccc4)o3)o2)cc1
TGI [1]: > 100 µM | TGI [2]: > 100 µM | TGI [3]: > 100 µM | TGI [4]: > 100 µM | TGI [5]: > 100 µM | TGI [6]: > 100 µM | TGI [7]: > 100 µM | TGI [8]: > 100 µM | TGI [9]: > 100 µM | TGI [10]: > 100 µM

O=c1[nH]c2ccc(C(F)(F)F)cc2nc1C(F)(F)F
TGI [1]: 43.1 µM | TGI [2]: > 100 µM | TGI [3]: > 100 µM | TGI [4]: 35.5 µM | TGI [5]: > 100 µM | TGI [6]: 63.8 µM | TGI [7]: > 100 µM | TGI [8]: 87.5 µM | TGI [9]: > 100 µM | TGI [10]: > 100 µM

CN1C/C(=C\c2cccs2)C(=O)/C(=C/c2cccs2)C1
TGI [1]: 48.9 µM | TGI [2]: > 100 µM | TGI [3]: > 100 µM | TGI [4]: > 100 µM | TGI [5]: 50.5 µM | TGI [6]: 47.2 µM | TGI [7]: 66.1 µM | TGI [8]: 71.2 µM | TGI [9]: > 100 µM | TGI [10]: 30.7 µM

CC1=C(C(=O)NCc2ccccc2)C(c2ccco2)C(C(=O)NCc2ccccc2)=C(C)N1
TGI [1]: 92.6 µM | TGI [2]: > 100 µM | TGI [3]: > 100 µM | TGI [4]: > 100 µM | TGI [5]: > 100 µM | TGI [6]: > 100 µM | TGI [7]: > 100 µM | TGI [8]: > 100 µM | TGI [9]: > 100 µM | TGI [10]: > 100 µM

Cc1cc(O)c(C(C)C)cc1C(=S)Nc1ccc(Cl)cc1
TGI [1]: 27.8 µM | TGI [2]: 23.4 µM | TGI [3]: 19.7 µM | TGI [4]: 23.8 µM | TGI [5]: 27.9 µM | TGI [6]: 19 µM | TGI [7]: 25.7 µM | TGI [8]: 29.7 µM | TGI [9]: 28.3 µM | TGI [10]: 27.8 µM

CSc1c(C)n([O-])c2cc(Cl)c(Cl)cc2[n+]1=O
TGI [1]: 46 µM | TGI [2]: 11.1 µM | TGI [3]: 36.6 µM | TGI [4]: 34.3 µM | TGI [5]: 33.7 µM | TGI [6]: 5.43 µM | TGI [7]: 30.7 µM | TGI [8]: 61.6 µM | TGI [9]: > 100 µM | TGI [10]: 46.3 µM

CCOC(=O)C1=C(C)N(Cc2ccccc2)C2(O)C(OC)CC(=O)C3C(=O)N(c4ccccc4)C(=O)C132 (stereo not given)
TGI [1]: 59.1 µM | TGI [2]: > 100 µM | TGI [3]: > 100 µM | TGI [4]: 37.1 µM | TGI [5]: 23.9 µM | TGI [6]: 81.6 µM | TGI [7]: 48.4 µM | TGI [8]: 50.6 µM | TGI [9]: 47.5 µM | TGI [10]: > 100 µM

O=C1c2cc3ncsc3cc2C(=O)c2c(O)ccc(O)c21
TGI [1]: > 100 µM | TGI [2]: > 100 µM | TGI [3]: > 100 µM | TGI [4]: > 100 µM | TGI [5]: > 100 µM | TGI [6]: > 100 µM | TGI [7]: > 100 µM | TGI [8]: > 100 µM | TGI [9]: > 100 µM | TGI [10]: > 100 µM

O=C(CN1CCN(c2ccccn2)CC1)N1CCCn2c1nc1ccccc1c2=O
TGI [1]: > 100 µM | TGI [2]: > 100 µM | TGI [3]: > 100 µM | TGI [4]: > 100 µM | TGI [5]: > 100 µM | TGI [6]: > 100 µM | TGI [7]: > 100 µM | TGI [8]: > 100 µM | TGI [9]: > 100 µM | TGI [10]: > 100 µM

CC(C)(NC(=O)C(C)(C)NC(=O)OCc1ccccc1)C(=O)O (Cbz-[Aib]-[Aib]-OH)
TGI [1]: > 100 µM | TGI [2]: > 100 µM | TGI [3]: > 100 µM | TGI [4]: > 100 µM | TGI [5]: > 100 µM | TGI [6]: > 100 µM | TGI [7]: > 100 µM | TGI [8]: > 100 µM | TGI [9]: > 100 µM | TGI [10]: > 100 µM

Cc1cc(OCC(O)CO)ccc1Cl (stereo not given)
TGI [1]: > 100 µM | TGI [2]: > 100 µM | TGI [3]: > 100 µM | TGI [4]: > 100 µM | TGI [5]: > 100 µM | TGI [6]: > 100 µM | TGI [7]: > 100 µM | TGI [8]: > 100 µM | TGI [9]: > 100 µM | TGI [10]: > 100 µM

CC(C)(C)OC(=O)NNCC(O)COc1ccccc1 (stereo not given)
TGI [1]: > 100 µM | TGI [2]: > 100 µM | TGI [3]: > 100 µM | TGI [4]: > 100 µM | TGI [5]: > 100 µM | TGI [6]: > 100 µM | TGI [7]: > 100 µM | TGI [8]: > 100 µM | TGI [9]: > 100 µM | TGI [10]: > 100 µM

CCCCOc1ccc(S(=O)(=O)/N=C(\NO)Nc2ccc(Cl)cc2)cc1
TGI [1]: 31.6 µM | TGI [2]: 41.2 µM | TGI [3]: 33.3 µM | TGI [4]: 28.1 µM | TGI [5]: 32.6 µM | TGI [6]: 31.8 µM | TGI [7]: 28.2 µM | TGI [8]: 26.7 µM | TGI [9]: 30.8 µM | TGI [10]: 30.8 µM

COc1ccc(/C=C2\OC(=O)C(Cl)=C2c2ccc(OC)c(Cl)c2)cc1
TGI [1]: > 100 µM | TGI [2]: > 100 µM | TGI [3]: 44.3 µM | TGI [4]: 48.6 µM | TGI [5]: > 100 µM | TGI [6]: > 100 µM | TGI [7]: > 100 µM | TGI [8]: 39.1 µM | TGI [9]: 67.6 µM | TGI [10]: > 100 µM

CC1CN=C(c2ccc(CN3CCC(CCCC4CCN(Cc5ccc(C6=NCC(C)N6)cc5)CC4)CC3)cc2)N1 (stereo not given)
TGI [1]: 52.3 µM | TGI [2]: > 100 µM | TGI [3]: > 100 µM | TGI [4]: > 100 µM | TGI [5]: > 100 µM | TGI [6]: 50.1 µM | TGI [7]: > 100 µM | TGI [8]: > 100 µM | TGI [9]: > 100 µM | TGI [10]: > 100 µM

CC(C)(C)CC(C)(C)NCC(O)COc1ccc(C(C)(C)c2ccc(OCC(O)CNC(C)(C)CC(C)(C)C)cc2)cc1 (stereo not given)
TGI [1]: 3.28 µM | TGI [2]: 1.16 µM | TGI [3]: 3.06 µM | TGI [4]: 2.67 µM | TGI [5]: 1.42 µM | TGI [6]: 1.26 µM | TGI [7]: 3.17 µM | TGI [8]: 3.03 µM | TGI [9]: 3.21 µM | TGI [10]: 2.2 µM

CC1=NN(c2nc(N)nc(-c3cc4ccccc4oc3=N)n2)C(C)(C)C1
TGI [1]: 41.8 µM | TGI [2]: 53.1 µM | TGI [3]: 36.7 µM | TGI [4]: 30.6 µM | TGI [5]: 40.2 µM | TGI [6]: 34.6 µM | TGI [7]: 34.8 µM | TGI [8]: 66.9 µM | TGI [9]: 32.6 µM | TGI [10]: 76.8 µM

COc1ccc(S(=O)(=O)Nc2cc(Sc3cccc4cccnc34)c(O)c3ccccc23)cc1
GI50 [1]: 1.37 µM | TGI [1]: 6.26 µM | GI50 [2]: 0.926 µM | TGI [2]: 11.2 µM | GI50 [3]: 1.55 µM | TGI [3]: 9.81 µM | GI50 [4]: 1.33 µM | TGI [4]: 2.85 µM | GI50 [5]: 0.823 µM | TGI [5]: 10.4 µM | GI50 [6]: 0.563 µM | TGI [6]: 8.08 µM | GI50 [7]: 0.731 µM | TGI [7]: 10 µM | GI50 [8]: 2.27 µM | TGI [8]: 16.5 µM | GI50 [9]: 2.23 µM | TGI [9]: 13.3 µM | GI50 [10]: 0.579 µM | TGI [10]: 11.9 µM

COc1cccc(N(CN2C(=O)CCC2OC)C(C)=O)c1 (stereo not given)
TGI [1]: > 100 µM | TGI [2]: > 100 µM | TGI [3]: > 100 µM | TGI [4]: > 100 µM | TGI [5]: > 100 µM | TGI [6]: > 100 µM | TGI [7]: > 100 µM | TGI [8]: > 100 µM | TGI [9]: > 100 µM | TGI [10]: > 100 µM

O=C(O)c1cccc(S(=O)(=O)NN2C(=O)CSC2c2c(O)ccc3ccccc23)c1 (stereo not given)
TGI [1]: > 100 µM | TGI [2]: > 100 µM | TGI [3]: 91.5 µM | TGI [4]: 62.5 µM | TGI [5]: 69.2 µM | TGI [6]: 46.3 µM | TGI [7]: > 100 µM | TGI [8]: 46.2 µM | TGI [9]: 94.9 µM | TGI [10]: > 100 µM
